From US10870647B2, “Imidazopyridine derivative, method for preparing same, and pharmaceutical composition containing same as active ingredient for preventing or treating cancer” (DAEGU-GYEONGBUK MEDICAL INNOVATION FOUNDATION, priority 2016, dated 2020)
pIC50: −log10 of the molar value.

How the values were obtained:
Type in all cases: cell-based
M-NFS-60 = experiment: Cancer cell proliferation inhibition, CCK-8, 72 hours
Protocol: (§1) MTS assay was performed to evaluate the cancer cell proliferation inhibition (cancer cell apoptosis) effect of the compounds of examples of the present invention. Particularly, the assay was performed using the cancer cell lines GIST-T1, GIST-T1/816, GIST-430, GIST-430/654, GIST-R1, GIST-R3, M-NFS-60, RetParental (Ba/F3), Retwt (Ba/F3), RetV804M (Ba/F3), RET (LC2/ad-CDC6), FYN (MCP-1), FYN (FN), MDA-MB-231, Huh7, K562, T315I(Ba/F3), SK-MEL-28 and A375. Cell culture was performed using a medium suitable for each cell line.
M-NFS-60 cell line was cultured in the complete growth medium prepared by adding 10% FBS, 0.05 mM 2-mercaptoethanol and 62 ng of human M-CSF to RPMI. When the confluence reached 80% in T-75 flask, the cells were collected in a 50 ml tube for seeding, followed by centrifugation at 800 rpm for 5 minutes. The cells were suspended in 10 mL of growth medium. The cell number was counted by using a hematocytometer to determine the necessary cell number and the medium volume for seeding. The cells were seeded in a 96-well plate at the density of 20000 cells/well (200 μL/well), followed by stabilization in a 37° C. CO2 incubator, while the compounds of the present invention were prepared. The compounds of the present invention were serially diluted with DMSO at the ratio of 1/3 with setting the maximum concentration at 1968 nM, which were loaded in a new V-bottom 96-well plate, resulting in the preparation of total 11 concentrations including the DMSO control. The cells that had been placed in the incubator were taken out, to which the compounds of the present invention were added (2 μl/well). The plate treated with the compounds was cultured in a 37° C. CO2 incubator for 72 hours. 72 hours later, the plate treated with the compounds was taken out, to which CCK-8 solution was treated (20 μl/well). After well mixing, the plate was further cultured in a 37° C. CO2 incubator for 2 hours. Then, OD450 was measured by using a microplate reader. To obtain accurate results, the wells displaying bubbles were eliminated from the measurement.

MDA-MB-231 = experiment: Real time cell proliferation, IncuCyte ZOOM, 72 hours; details: Homo sapiens, MDA-MB-231, 72 h
K562 = experiment: Cancer cell proliferation inhibition, CCK-8, 72 hours; details: Homo sapiens, K562, 72 h
Protocol: as §1
(§2) In the meantime, MDA-MB-231 and A375 cells were seeded in a 96well plate at the density of 2×10^3/100 μl/well, which stood for a day for attachment. The culture fluid was eliminated. After removing the culture medium, the medium was replaced with the culture medium containing the compounds of the present invention at 3-times serially diluted 9 concentrations (0.0015-10 μM) and the DMSO control, followed by incubation in a 37° C. CO2 incubator for 72 hours. On the other hand, K-562 and Ba/F3-T315I cells were seeded in a 96-well plate at the density of 1×10^4/90 μl/well. The plate containing K-562 cells was added with the culture medium containing the compounds of the present invention at 3-times serially diluted 9 concentrations (0.015-100 μM) and the DMSO control (10 μl/well). The plate containing Ba/F3-T315I cells was added with the culture medium containing the compounds of the present invention at 5-times serially diluted 9 concentrations (0.000256-100 μM) and the DMSO control (10 μl/well). The final concentration was made 0-10 μM and then the cells were cultured in a 37° C. CO2 incubator for 72 hours.
(§3) A375, K-562 and Ba/F3-T315I cells were added with CCK-8 solution at the concentration of 10 μl/well, followed by orbital shaking for 30 seconds. Then, the cells were cultured in a 37° C. CO2 incubator for 2 hours. OD450 was measured by using a microplate reader. The OD value of the well treated with the culture medium and CCK-8 solution alone was subtracted from the OD value measured above, followed by calculation of IC50 using GraphPad Prism 6 software.

A375 = experiment: as above; details: Homo sapiens, A-375, 72 h
Protocol: as §1, §2, §3

T315I (Ba/F3) = target: T1, T315I (Ba/F3) (Homo sapiens, UniProt P00519, T315I, cells depend on it); experiment: as above; details: read-out: T315I (Ba/F3) IC50
T1 construct: fused on or other part: P11274 (Breakpoint cluster region protein)
Protocol: as §1, §2, §3

RET (LC2/ad-CDC6) = experiment: Cancer cell proliferation inhibition, MTS assay, 72 hours; details: 72 h
Protocol: as §1
(§4) Other cell lines were seeded in a 96-well plate containing the corresponding medium appropriate for each cell line at the density of 3,000 cells/well, followed by culture in a 5% CO2 and 37° C. incubator for 24 hours. The compounds of examples of the present invention were added to each well at the concentration of from the highest volume of 50 μM to every step of serial dilution. The solvent control, dimethylsulfoxide (DMSO), was treated at the same concentration of 0.05% (v/v) as the volume used for the treatment of the compounds above. Each cell line was cultured for 72 hours. To investigate the cell viability, the MTS and PMS (phenazine methosulfate) mixture provided in CellTiter 96® AQuous Non-Radioactive Cell Proliferation Assay Kit (Promega) was added to each cell culture medium, followed by additional culture at 37° C. for 2 hours. Then, OD450 was measured. Based on OD of the solvent control cells not treated with any compounds of the present invention, the cell proliferation inhibition rate was calculated according to the treatment concentration of each compound. At this time, the concentration of each compound that was able to inhibit cancer cell proliferation up to 50% was determined as IC50 (uM). IC50 of each compound was determined with three data sets and calculated by using Prism softwater (version 6.01, GraphPad).

Huh7 = experiment: as above; details: Homo sapiens, Huh-7
Protocol: as §1, §4

Structure (SMILES) | pIC50 (M-NFS-60) | pIC50 (MDA-MB-231) | pIC50 (K562) | pIC50 (A375) | GI50 (T315I (Ba/F3)) [nM] | pIC50 (RET (LC2/ad-CDC6)) | pIC50 (Huh7)
Cc1ccc(C(=O)Nc2ccc(Cl)c(C(F)(F)F)c2)cc1C#Cc1cnc2c(Nc3cnn(C4CCNCC4)c3)cccn12 [Example 63, N-(4-chloro-3-(trifluoromethyl)phenyl)-4-methyl-3-((8-((1-(piperidin-4-yl)-1H-pyrazol-4-yl)amino)imidazo[1,2-a]pyridin-3-yl)ethynyl)benzamide] | 7.15 | 5.85 | > 9.00 | 5.87 | 374 | < 8.00 | –
Cc1ccc(C(=O)Nc2ccc(CN3CCN(C)CC3)c(C(F)(F)F)c2)cc1C#Cc1cnc2c(Nc3cccc(C(C)(C)O)n3)cccn12 [Example 64, 3-((8-(6-(2-hydroxypropan-2-yl)pyridin-2-yl)aminoimidazo[1,2-a]pyridin-3-yl)ethynyl)-4-methyl-N-(4-((4-methylpiperazin-1-yl)methyl)-3-(trifluoromethyl)phenyl)benzamide] | 6.89 | 6.01 | 8.52 | 6.13 | 75 | < 8.00 | –
COCCCn1cc(Nc2cccn3c(C#Cc4cc(C(=O)Nc5ccc(CN6CCC(N(C)C)C6)c(C(F)(F)F)c5)ccc4C)cnc23)cn1 (centres unmarked) [Example 43, N-(4-((3-(dimethylamino)pyrrolidin-1-yl)methyl)-3-(trifluoromethyl)phenyl)-3-((8-((1-(3-methoxypropyl)-1H-pyrazol-4-yl)amino)imidazo[1,2-a]pyridin-3-yl)ethynyl)-4-methylbenzamide] | – | 6.72 | 7.80 | 6.47 | 59.7 | < 8.00 | 7.01
Cc1ccc(C(=O)Nc2ccc(CN3CCN(C)CC3)c(C(F)(F)F)c2)cc1C#Cc1cnc2c(Nc3cc4n(n3)CCNC4)cccn12 [Example 66, 4-methyl-N-(4-((4-methylpiperazin-1-yl)methyl)-3-(trifluoromethyl)phenyl)-3-((8-((4,5,6,7-tetrahydropyrazolo[1,5-a]pyrazin-2-yl)amino)imidazo[1,2-a]pyridin-3-yl)ethynyl)benzamide] | 7.20 | 6.41 | > 8.82 | – | 170 | – | –
Cc1ccc(C(=O)Nc2ccc(CN3CCN(C)[C@@H](C)C3)c(C(F)(F)F)c2)cc1C#Cc1cnc2c(Nc3cnn(C)c3)cccn12 [Example 47, (S)—N-(4-((3,4-dimethylpiperazin-1-yl)methyl)-3-(trifluoromethyl)phenyl)-4-methyl-3-((8-((1-methyl-1H-pyrazol-4-yl)amino)imidazo[1,2-a]pyridin-3-yl)ethynyl)benzamide] | 7.36 | 6.77 | > 9.00 | 6.82 | 25 | < 8.00 | –
COCCn1cc(Nc2cccn3c(C#Cc4cc(C(=O)Nc5ccc(CN6CCN(C)[C@H](C)C6)c(C(F)(F)F)c5)ccc4C)cnc23)cn1 [Example 40, (R)—N-(4-((3,4-dimethylpiperazin-1-yl)methyl)-3-(trifluoromethyl)phenyl)-3-((8-((1-(2-methoxyethyl)-1H-pyrazol-4-yl)amino)imidazo[1,2-a]pyridin-3-yl)ethynyl)-4-methylbenzamide] | – | 6.64 | 8.10 | 7.01 | 33.5 | 8.00 | 7.00
Cc1ccc(C(=O)Nc2ccc3cccnc3c2)cc1C#Cc1cnc2c(Nc3cnn(C)c3)cccn12 [Example 36, 4-methyl-3-((8-((1-methyl-1H-pyrazol-4-yl)amino)imidazo[1,2-a]pyridin-3-yl)ethynyl)-N-(quinolin-7-yl)benzamide] | 8.11 | < 5.00 | 8.22 | < 5.00 | > 10000 | – | 6.84
COCCn1cc(Nc2cccn3c(C#Cc4cc(C(=O)Nc5ccc(CN6CCN(C)[C@@H](C)C6)c(C(F)(F)F)c5)ccc4C)cnc23)cn1 [Example 44, (S)—N-(4-((3,4-dimethylpiperazin-1-yl)methyl)-3-(trifluoromethyl)phenyl)-3-((8-((1-(2-methoxyethyl)-1H-pyrazol-4-yl)amino)imidazo[1,2-a]pyridin-3-yl)ethynyl)-4-methylbenzamide] | 7.41 | 6.62 | 7.92 | 6.74 | 42.2 | 8.00 | 6.78
Cc1ccc(C(=O)Nc2cccc(C(F)(F)F)c2)cc1C#Cc1cnc2c(Nc3cnn(CCN(C)C)c3)cccn12 [Example 74] | 7.67 | 5.95 | > 8.82 | – | 93.1 | – | –

Continued by rising pIC50 (MDA-MB-231), values first:

pIC50 (M-NFS-60) | pIC50 (MDA-MB-231) | pIC50 (K562) | pIC50 (A375) | GI50 (T315I (Ba/F3)) [nM] | pIC50 (RET (LC2/ad-CDC6)) | pIC50 (Huh7) | Structure (SMILES)
7.91 | 5.94 | > 8.82 | – | 26.1 | – | 6.07 | COCCn1cc(Nc2cccn3c(C#Cc4cc(C(=O)Nc5cccc(C(F)(F)F)c5)ccc4C)cnc23)cn1 [Example 70]
7.71 | 6.37 | > 8.82 | – | 40.1 | – | 6.04 | Cc1ccc(C(=O)Nc2cccc(C(F)(F)F)c2)cc1C#Cc1cnc2c(Nc3cc4n(n3)CCNC4)cccn12 [Example 67, 4-methyl-3-((8-((4,5,6,7-tetrahydropyrazolo[1,5-a]pyrazin-2-yl)amino)imidazo[1,2-a]pyridin-3-yl)ethynyl)-N-(3-(trifluoromethyl)phenyl)benzamide]
7.39 | 6.49 | > 9.00 | 6.65 | 28.2 | < 8.00 | 7.24 | Cc1ccc(C(=O)Nc2ccc(CN3CC[C@@H](N(C)C)C3)c(C(F)(F)F)c2)cc1C#Cc1cnc2c(Nc3cnn(C)c3)cccn12 [Example 50, (R)—N-(4-((3-(dimethylamino)pyrrolidin-1-yl)methyl)-3-(trifluoromethyl)phenyl)-4-methyl-3-((8-((1-methyl-1H-pyrazol-4-yl)amino)imidazo[1,2-a]pyridin-3-yl)ethynyl)benzamide]
– | 6.49 | 8.10 | 6.79 | 122 | < 8.00 | 7.00 | COCCCn1cc(Nc2cccn3c(C#Cc4cc(C(=O)Nc5ccc(CN6CCN(C)[C@H](C)C6)c(C(F)(F)F)c5)ccc4C)cnc23)cn1 [Example 42, (R)—N-(4-((3,4-dimethylpiperazin-1-yl)methyl)-3-(trifluoromethyl)phenyl)-3-((8-((1-(3-methoxypropyl)-1H-pyrazol-4-yl)amino)imidazo[1,2-a]pyridin-3-yl)ethynyl)-4-methylbenzamide]
